Experimental findings from ChEMBL document CHEMBL1909046, “DrugMatrix in vitro pharmacology data” are described below.

Assay [1] can be described thus: DRUGMATRIX: Glutamate, NMDA, Agonism radioligand binding (ligand: [3H] CGP-39653). Type of assay: cell membranes, Rattus norvegicus, Wistar, Cerebral cortex, Membrane. The following applies: Not Active = under 50% inhibition at 10 µM.
The target of assay [2] is T1, Cysteinyl leukotriene receptor 1 (Homo sapiens, UniProt Q9Y271). Further: in other assays of this panel Not Active means under 50% inhibition at 10 µM.
T1 sequence (Q9Y271 whole entry): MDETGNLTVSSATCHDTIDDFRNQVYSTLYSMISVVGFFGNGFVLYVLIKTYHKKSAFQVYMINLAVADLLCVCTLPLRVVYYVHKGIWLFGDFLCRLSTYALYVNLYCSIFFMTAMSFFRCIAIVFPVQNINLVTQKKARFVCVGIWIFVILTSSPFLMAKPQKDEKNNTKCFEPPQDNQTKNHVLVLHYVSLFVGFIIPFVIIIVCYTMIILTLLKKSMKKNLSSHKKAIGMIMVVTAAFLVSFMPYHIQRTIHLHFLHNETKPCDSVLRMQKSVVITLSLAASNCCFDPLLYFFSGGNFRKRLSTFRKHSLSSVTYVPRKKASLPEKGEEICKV
Type of assay: cell membranes, CHO-K1, Membrane. The following applies: cho-k1.

The target of another assay is T2, Endothelin-1 receptor (Homo sapiens, UniProt P25101). Further: in other assays of this panel Not Active means under 50% inhibition at 10 µM.
T2 sequence (P25101 whole entry): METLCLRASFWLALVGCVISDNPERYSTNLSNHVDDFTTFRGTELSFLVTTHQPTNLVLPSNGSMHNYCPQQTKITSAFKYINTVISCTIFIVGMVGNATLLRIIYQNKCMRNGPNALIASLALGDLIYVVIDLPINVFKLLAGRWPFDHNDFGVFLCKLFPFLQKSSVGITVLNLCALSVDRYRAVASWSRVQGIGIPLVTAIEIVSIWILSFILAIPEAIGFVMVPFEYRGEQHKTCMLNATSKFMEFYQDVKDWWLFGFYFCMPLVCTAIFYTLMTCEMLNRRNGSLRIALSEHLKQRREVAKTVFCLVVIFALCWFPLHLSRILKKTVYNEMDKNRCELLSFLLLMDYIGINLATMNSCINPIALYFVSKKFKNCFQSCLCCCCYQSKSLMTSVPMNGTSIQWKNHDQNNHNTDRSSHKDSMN
Type of assay: cell membranes, CHO-K1, Membrane. The following applies: cho-k1.

Assay [3] is described as follows: DRUGMATRIX: Glutamate, Kainate radioligand binding (ligand: [3H] Kainic acid). The assay is classed as cell membranes, Rattus norvegicus, Wistar, Brain, Membrane. The following applies: Not Active = under 50% inhibition at 10 µM.
For assay [4], the target named is cGMP-specific 3',5'-cyclic phosphodiesterase (Homo sapiens, UniProt O76074). The experiment in a line: DRUGMATRIX: Phosphodiesterase PDE5 enzyme inhibition (substrate: [3H]cGMP + cGMP). Type of assay: tissue-based. The following applies: platelet; Not Active = under 50% inhibition at 10 µM.
The target in assay [5] is T3, 3-hydroxy-3-methylglutaryl-coenzyme A reductase (Homo sapiens, UniProt P04035).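 Further: enzyme inhibition assay of HMG-CoA reductase using radiolabeled [14C]HMG-CoA as substrate; in other assays of this panel Not Active means under 50% inhibition at 10 µM.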
T3 sequence (P04035 whole entry): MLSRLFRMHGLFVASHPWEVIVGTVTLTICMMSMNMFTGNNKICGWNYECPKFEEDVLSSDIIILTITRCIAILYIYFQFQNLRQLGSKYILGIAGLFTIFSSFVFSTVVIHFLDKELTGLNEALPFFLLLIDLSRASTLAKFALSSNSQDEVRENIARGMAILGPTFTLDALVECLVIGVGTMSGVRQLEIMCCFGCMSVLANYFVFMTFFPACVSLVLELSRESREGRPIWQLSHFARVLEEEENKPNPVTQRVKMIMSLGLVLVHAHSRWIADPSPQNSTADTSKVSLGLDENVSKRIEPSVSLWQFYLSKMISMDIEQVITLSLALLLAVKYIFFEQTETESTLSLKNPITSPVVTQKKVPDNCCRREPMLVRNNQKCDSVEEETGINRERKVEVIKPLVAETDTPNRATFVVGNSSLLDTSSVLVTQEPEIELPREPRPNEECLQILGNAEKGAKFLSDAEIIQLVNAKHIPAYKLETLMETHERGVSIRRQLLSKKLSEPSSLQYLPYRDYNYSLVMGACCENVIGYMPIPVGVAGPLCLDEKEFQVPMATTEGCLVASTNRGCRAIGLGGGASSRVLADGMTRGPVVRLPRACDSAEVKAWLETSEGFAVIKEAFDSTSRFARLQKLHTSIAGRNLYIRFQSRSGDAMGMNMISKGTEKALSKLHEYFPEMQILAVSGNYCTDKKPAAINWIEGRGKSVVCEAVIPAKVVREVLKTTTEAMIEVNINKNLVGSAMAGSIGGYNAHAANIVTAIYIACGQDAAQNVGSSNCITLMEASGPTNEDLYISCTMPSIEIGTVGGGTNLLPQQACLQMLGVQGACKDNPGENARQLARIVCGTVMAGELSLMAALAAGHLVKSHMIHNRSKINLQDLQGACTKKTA
More on the design: species or system Escherichia coli.

The nature of assay [6]: DRUGMATRIX: Interleukin IL-1 radioligand binding (ligand: [125I] interleukin 1beta). The following applies: nih3t3; Not Active = under 50% inhibition at 10 µM. The assay is classed as cell membranes, Membrane.
The next assay has as its target T4, Adenosine receptor A1 (Homo sapiens, UniProt P30542).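 Further: radioligand binding assay at the adenosine A1 receptor, with DPCPX serving as the labelled ligand; in other assays of this panel Not Active means under 50% inhibition at 10 µM.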
T4 sequence (P30542 whole entry): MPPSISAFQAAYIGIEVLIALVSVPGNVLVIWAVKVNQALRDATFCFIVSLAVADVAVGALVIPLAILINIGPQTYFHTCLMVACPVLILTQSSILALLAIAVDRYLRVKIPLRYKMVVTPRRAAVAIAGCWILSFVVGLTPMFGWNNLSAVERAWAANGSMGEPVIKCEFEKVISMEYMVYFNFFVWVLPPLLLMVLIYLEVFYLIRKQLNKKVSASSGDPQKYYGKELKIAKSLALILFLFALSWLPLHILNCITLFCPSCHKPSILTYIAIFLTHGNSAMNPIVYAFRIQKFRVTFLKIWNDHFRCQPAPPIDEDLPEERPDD
The assay is classed as cell membranes, CHO, Membrane. The following applies: cho.

The next assay has as its target Acetylcholinesterase (Homo sapiens, UniProt P22303). The assay is described as follows: DRUGMATRIX: Acetylcholinesterase enzyme inhibition (substrate: acetylthiocholine). The assay is classed as cell-based, HEK293. The following applies: Not Active = under 50% inhibition at 10 µM.

Chain of Acetylcholinesterase (P22303 whole entry): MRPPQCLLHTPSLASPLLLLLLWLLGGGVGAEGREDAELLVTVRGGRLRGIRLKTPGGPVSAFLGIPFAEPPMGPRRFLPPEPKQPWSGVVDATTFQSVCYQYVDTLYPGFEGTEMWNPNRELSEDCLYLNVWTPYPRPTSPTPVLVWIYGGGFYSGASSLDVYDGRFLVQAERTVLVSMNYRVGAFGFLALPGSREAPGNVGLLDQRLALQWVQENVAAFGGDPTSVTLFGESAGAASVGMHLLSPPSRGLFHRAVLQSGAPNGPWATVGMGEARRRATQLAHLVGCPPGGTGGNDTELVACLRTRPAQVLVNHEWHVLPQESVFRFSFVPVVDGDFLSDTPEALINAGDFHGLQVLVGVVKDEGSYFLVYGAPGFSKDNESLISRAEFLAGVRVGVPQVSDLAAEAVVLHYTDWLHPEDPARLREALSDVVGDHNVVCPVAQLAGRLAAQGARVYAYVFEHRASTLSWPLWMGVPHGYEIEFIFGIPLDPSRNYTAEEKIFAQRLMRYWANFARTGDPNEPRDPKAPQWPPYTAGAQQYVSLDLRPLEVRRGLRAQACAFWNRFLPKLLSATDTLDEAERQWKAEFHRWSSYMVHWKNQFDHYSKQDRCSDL

For the compound `CC(=O)O[C@@]12CO[C@@H]1C[C@H](O)[C@@]1(C)C(=O)[C@H](O)C3=C(C)[C@@H](OC(=O)[C@H](O)[C@@H](NC(=O)OC(C)(C)C)c4ccccc4)C[C@@](O)([C@@H](OC(=O)c4ccccc4)[C@H]21)C3(C)C.O.O.O` [DOCETAXEL], the half-maximal inhibitory concentration (IC50) result (in assay [1]; in [2]; against Endothelin-1 receptor; in [3]; in assay [4]; in assay [5]) was “Not Active” throughout. The IC50 entry (in assay [6]; at Adenosine receptor A1; on Acetylcholinesterase (hek293)) was “Not Active” throughout. Further, the Ki entry in assay [1], in assay [3] and in [6] was “Not Active” in each case.

Turning to `C[C@H]1c2cccc(O)c2C(=O)C2=C(O)[C@]3(O)C(=O)C(C(N)=O)=C(O)[C@@H](N(C)C)[C@@H]3[C@@H](O)[C@@H]21.O` [DOXYCYCLINE], the half-inhibitory concentration (IC50) result (in assay [1]; in assay [2]; against Endothelin-1 receptor; in [3]; in assay [4]; in [5]) was “Not Active” in each case. The IC50 result (in assay [6]; at Adenosine receptor A1; against Acetylcholinesterase (hek293)) was “Not Active” in each case. Moreover, the Ki entry in assay [1], in assay [3] and in assay [6] was “Not Active” throughout.

For CADMIUM ACETATE, the IC50 result (in assay [1]; in [2]; against Endothelin-1 receptor; in assay [3]; in [4]; in [5]) was “Not Active” each time. In addition, the IC50 result (in [6]; against Adenosine receptor A1; against Acetylcholinesterase (hek293)) was “Not Active” in each case. In addition, the Ki entry (in assay [1]; in assay [2]; at Endothelin-1 receptor; in assay [3]; in assay [4]; in [5]) was “Not Active” in each case. Also, the Ki result (in [6]; at Adenosine receptor A1; at Acetylcholinesterase (hek293)) was “Not Active” each time.

With `CC(C)[C@@]1(NC(=O)[C@@H]2C[C@@H]3c4cccc5[nH]cc(c45)C[C@H]3N(C)C2)O[C@@]2(O)[C@@H]3CCCN3C(=O)[C@H](Cc3ccccc3)N2C1=O.CS(=O)(=O)O` [DIHYDROERGOCRISTINE MESYLATE], the IC50 result (in assay [1]; in assay [2]; against Endothelin-1 receptor; in assay [3]; in assay [4]; in [5]) was “Not Active” throughout. For the same compound, the IC50 result (in assay [6]; at Adenosine receptor A1; on Acetylcholinesterase (hek293)) was “Not Active” each time. For the same compound, the Ki entry in [1], in [3] and in [6] was “Not Active” in each case.

As to LIPOPOLYSACCHARIDE E. COLI O55:B5, the IC50 result (in assay [1]; in assay [2]; on Endothelin-1 receptor; in assay [3]; in assay [4]; in [5]) was “Not Active” throughout. The IC50 result (in assay [6]; at Adenosine receptor A1; against Acetylcholinesterase (hek293)) was “Not Active” throughout. The Ki entry (in assay [1]; in assay [2]; on Endothelin-1 receptor; in [3]; in assay [4]; in assay [5]) was “Not Active” each time. Moreover, the Ki entry (in assay [6]; at Adenosine receptor A1; at Acetylcholinesterase (hek293)) was “Not Active” in each case.

For the compound `Nc1c(Br)cc(Br)cc1CN[C@H]1CC[C@H](O)CC1` [AMBROXOL], the half-inhibitory concentration (IC50) entry (in [1]; in assay [2]; at Endothelin-1 receptor; in assay [3]; in assay [4]; in assay [5]) was “Not Active” in each case. Further, the half-maximal inhibitory concentration (IC50) result (in assay [6]; against Adenosine receptor A1; at Acetylcholinesterase (hek293)) was “Not Active” throughout. Moreover, the Ki result in assay [1], in [3] and in assay [6] was “Not Active” each time.

With `NCCCCCC(=O)O` [AMINOCAPROIC ACID], the concentration for half-maximal inhibition (IC50) result (in assay [1]; in assay [2]; at Endothelin-1 receptor; in assay [3]; in assay [4]; in assay [5]) was “Not Active” in each case. Besides, the IC50 result (in assay [6]; against Adenosine receptor A1; against Acetylcholinesterase (hek293)) was “Not Active” each time. In addition, the Ki result in assay [1], in assay [3] and in assay [6] was “Not Active” in each case.

In the case of `CCC(C)n1ncn(-c2ccc(N3CCN(c4ccc(OCC5COC(Cn6cncn6)(c6ccc(Cl)cc6Cl)O5)cc4)CC3)cc2)c1=O` (configuration not stated) [ITRACONAZOLE], the IC50 result (in [1]; in assay [2]; against Endothelin-1 receptor; in [3]; in assay [4]; in assay [5]) was “Not Active” throughout. In addition, the IC50 result (in [6]; against Adenosine receptor A1; at Acetylcholinesterase (hek293)) was “Not Active” each time. Moreover, the Ki result in assay [1], in assay [3] and in [6] was “Not Active” throughout.

On to `Cc1c(C)c2c(c(C)c1O)CC[C@@](C)(CCC[C@H](C)CCC[C@H](C)CCCC(C)C)O2` [ALPHA-TOCOPHEROL], for which the IC50 entry (in [1]; in assay [2]; at Endothelin-1 receptor; in assay [3]; in [4]; in [5]) was “Not Active” each time. The IC50 entry (in assay [6]; on Adenosine receptor A1; at Acetylcholinesterase (hek293)) was “Not Active” throughout. Also, the Ki result in [1], in assay [3] and in [6] was “Not Active” each time.

Regarding `Cc1cc(C(C#N)c2ccc(Cl)cc2)c(Cl)cc1NC(=O)c1cc(I)cc(I)c1O` (configuration not stated) [CLOSANTEL], the IC50 entry (in assay [1]; in [2]; against Endothelin-1 receptor; in [3]; in assay [4]; in assay [5]) was “Not Active” each time. Moreover, the IC50 (commonly the concentration at which inhibition is half-maximal) in assay [6] is “Not Active”; at Adenosine receptor A1 it was “Not Active”; at Acetylcholinesterase (read-out: IC50) it was 2950 nM. The Ki result in assay [1], in [3] and in [6] was “Not Active” throughout.
